Here are results for 8 molecules from US9938230B2, “Esters or salts of 2-hydroxy-4-propylcyclohepta-2,4,6-trienone and application thereof in preparation of animal antibacterial agents and growth promoters used in feed” (GUANGZHOU INSIGHTER BIOTECHNOLOGY CO., LTD., priority 2014, dated 2018).

Each structure is given as a SMILES string.

The nature of series [1]: Optical stability test of different metal salts, 2% premix, illumination at 4500-5000 lux for 5 days, HPLC. It counts as physicochemical. Conditions: for Residual content of 5 days later (%): 2% premix; for Initial content (%): 2% premix with corncob powder, before illumination. The method, then:
Samples (the premixes) were spread in a stability test chamber and subjected to illumination at 4500-5000 lux for 5 days. Then 1.0 g of each of the samples (three duplicate samples from each sample) and 50 ml of ethanol were added into a conical flask, subjected to sonication for 10 min, and then filtrated through filter paper. The filtrate was transferred into a 50 ml volumetric flask, topped up to the final volume with ethanol, and then filtered with a 0.45 μm microporous membrane and subjected to HPLC analysis. Column: WondasilC18 (250 mm×4.6 mm, 5 μm); Mobile Phase: methanol/40 mM ammonium acetate (65:35, v/v; pH 4): Detection Wavelength: 220 nm; Column Temperature: 25° C.; […] Flow Rate: 0.8 or 1.0 ml/min.

Series [2] in a line: Thermal stability test of different metal salts, 2% premix with corncob powder at 100° C., HPLC. It counts as physicochemical. As to conditions: for Residual content at 100° C. for 20 h (%) / Residual content at 100° C. for 40 h (%): 2% premix; for Initial content (%): 2% premix with corncob powder, before heating; for Residual content at 100° C. for 20 h (%) / Residual content at 100° C. for 40 h (%) / thermal stability (in words): 100° C.; for thermal stability (in words): compared with IST-009-001. The method, then: (§1) Each of the metal salts of 2-hydroxy-4-propylcyclohepta-2,4,6-trienone prepared in Embodiments 2-6 was mixed with corncob powder to obtain a premix with a mass fraction of 2%. Samples (the premix) were placed in crucibles and spread, and then placed in oven at 100° C. for different durations. Then 1.0 g of each of the samples (three duplicate samples from each sample) and 50 ml of ethanol were added into a conical flask, subjected to sonication for 10 min, and then filtrated through filter paper. The filtrate was transferred into a 50 ml volumetric flask, topped up to the final volume with ethanol, and then filtered with a 0.45 μm microporous membrane and subjected to HPLC analysis.
(§2) Chromatographic Parameters
(§3) Column: Wondasil C18 (250 mm×4.6 mm, 5 μm);
Mobile phase: methanol/40 mM ammonium acetate (65:35, v/v; pH 4):
(§4) Detection Wavelength: 220 nm;
(§5) Column Temperature: 25° C.;
(§6) Flow Rate: 0.8 or 1.0 ml/min.

In series [3] the test system is yellow feather broilers (female). Description: Application in broiler feeds, 30 days test period, weight gain and feed conversion. The series is classed as in vivo. As to conditions: for Average daily weight gain / Average weight gain / Feed conversion efficiency / Consumption: 30 days; for Consumption: group of 100 broilers. An excerpt: 500 1-day-aged, healthy, fast-grown yellow feather broilers (female) in the same growing state and similar in weight were randomly divided into five groups according to table 4, 100 broilers in each group. Broilers of each group were fed with different dosages of magnesium 7-oxo-3-propylcyclohepta-1,3,5-trienolate or 2-hydroxy-4-propylcyclohepta-2,4,6-trienone.

Series [4] can be described thus: Thermal stability test of 7-oxo-3-propylcyclohepta-1,3,5-trien-1-yl stearate, 2% premix with corncob powder in oven, HPLC. The series is classed as physicochemical. The method, then: as §1, with “The” for “Each of the metal salts of 2-hydroxy-4-propylcyclohepta-2,4,6-trienone”, “7-oxo-3-propylcyclohepta-1,3,5-trien-1-yl stearate (IST-009-050)” for “in Embodiments 2-6”, “60°” for “100°”, “C. or eat” for “C.”
as §2, §3
Mobile Phase: acetonitrile (100%);
as §4, §5, §6

The mark [5] stands for this setting: 2.5 ppm mixed with feed, broilers.
Where [6] appears, read: 5.0 ppm mixed with feed, broilers.

Regarding `CCCc1cccc(=O)c(O)c1` [Calcium 7-oxo-3-propylcyclohepta-1,3,5-trienolate], the “Residual content of 5 days later (%)” value in series [1] (4500-5000 lux, 5 days) is 0.89%. In series [2], the “Residual content at 100° C. for 20 h (%)” value was 1.73% and the “Residual content at 100° C. for 40 h (%)” value was determined as 1.67%.

With `CCCc1cccc(=O)c(O)c1` [IST-009-001, 2-hydroxy-4-propylcyclohepta-2,4,6-trienone], the results for the “Average daily weight gain” value in series [3] (setting [5]) and in series [3] (setting [6]) were 26.1 g and 26.8 g, respectively. Also, the results for the “Average weight gain” value in series [3] (setting [5]) and in series [3] (setting [6]) were 783 g and 804 g, respectively. Moreover, the Feed conversion efficiency in series [3] (setting [5]) is 1.988; in series [3] (setting [6]) it was 1.906. The figures for the “Consumption” value in series [3] (2.5 ppm mixed with feed) and in series [3] (5.0 ppm mixed with feed) were 156.66 kg and 153.24 kg, respectively. Also, the “Content (%)” value is recorded as 0% in series [4] (2% premix, 80° C., 22 h); 0% in series [4] (2% premix, 80° C., 44 h); 0% in series [4] (2% premix, 80° C., 68 h). In addition, the “Initial content (%)” value in series [1] and in series [2] was 2.0% each time. Besides, the “Residual content of 5 days later (%)” value in series [1] (4500-5000 lux, 5 days) came out at 0%. The “Residual content at 100° C. for 20 h (%)” value in series [2] is on record as 0%. For the same molecule, in series [2], the “Residual content at 100° C. for 40 h (%)” value turned out to be 0%.

With `CCCCCCCCCCCCCCCCCC(=O)Oc1cc(CCC)cccc1=O` [IST-009-050, 7-oxo-3-propylcyclohepta-1,3,5-trien-1-yl stearate], the “Content (%)” value in series [4] (2% premix with corncob powder, before heating (no temperature, no time)) is given as 2.0%; in series [4] (2% premix, 60° C., 22 h) it was 0.84%; in series [4] (2% premix, 60° C., 44 h) it was 0.35%; in series [4] (2% premix, 60° C., 68 h), 0.14%; in series [4] (2% premix, 80° C., 22 h), 0.61%; in series [4] (2% premix, 80° C., 44 h) it was 0.03%. The “Content (%)” value in series [4] (2% premix, 80° C., 68 h) amounted to 0%. Further, in series [4] (compared with IST-009-001), the “thermal stability (in words)” value is “better than the unesterified 2-hydroxy-4-propylcyclohepta-2,4,6-trienone (IST-009-001), but not satisfactory yet”.

In the case of `CCCc1cccc(=O)c(O)c1` [Magnesium 7-oxo-3-propylcyclohepta-1,3,5-trienolate], in series [3] (setting [5]), the “Average daily weight gain” value was 26.2 g, the “Average weight gain” value came out at 785 g and the Feed conversion efficiency is 1.984. The “Consumption” value in series [3] (2.5 ppm mixed with feed) is 155.94 kg. For the same molecule, in series [3] (setting [6]), the “Average daily weight gain” value turned out to be 26.6 g, the “Average weight gain” value turned out to be 798 g and the Feed conversion efficiency is 1.899. Moreover, the “Consumption” value in series [3] (5.0 ppm mixed with feed) was 151.54 kg. Further, in series [3] (broilers, 30 days test period), the “feed conversion efficiency (in words)” value was “significantly improved” and the “weight gain (in words)” value is “significantly improved”. In series [1] (4500-5000 lux, 5 days), the “Residual content of 5 days later (%)” value was determined as 1.52%. In addition, in series [2], the “Residual content at 100° C. for 40 h (%)” value worked out at 1.99%.

As to `CCCc1cccc(=O)c(O)c1` [Manganese 7-oxo-3-propylcyclohepta-1,3,5-trienolate], in series [1] (4500-5000 lux, 5 days), the “Residual content of 5 days later (%)” value was 1.96% and the “optical stability (in words)” value is on record as “most significant”. Also, in series [2], the “Initial content (%)” value turned out to be 2.0%, the “Residual content at 100° C. for 20 h (%)” value is 1.99%, the “Residual content at 100° C. for 40 h (%)” value was found to be 1.98% and the “thermal stability (in words)” value is listed as “highest thermal stability”.

Regarding `CCCc1cccc(=O)c(O)c1` [magnesium 7-oxo-3-propylcyclohepta-1,3,5-trienolate], in series [2], the “thermal stability (in words)” value was “highest thermal stability”.

Take `CCCc1cccc(=O)c([O-])c1.[K+]` [potassium 7-oxo-3-propylcyclohepta-1,3,5-trienolate]: in series [1], the “Initial content (%)” value was 2.0%. Also, in series [1] (4500-5000 lux, 5 days), the “Residual content of 5 days later (%)” value was 0.17%. Also, in series [2], the “Initial content (%)” value came to 2.0%, the “Residual content at 100° C. for 20 h (%)” value is listed as 1.43% and the “Residual content at 100° C. for 40 h (%)” value came out at 1.13%.

As to `CCCc1cccc(=O)c([O-])c1.[Na+]` [sodium 7-oxo-3-propylcyclohepta-1,3,5-trienolate], the “Initial content (%)” value in series [1] came out at 2.0%. Also, the “Residual content of 5 days later (%)” value in series [1] (4500-5000 lux, 5 days) worked out at 0.05%. Further, in series [2], the “Initial content (%)” value is listed as 2.0%, the “Residual content at 100° C. for 20 h (%)” value was determined as 1.31% and the “Residual content at 100° C. for 40 h (%)” value amounted to 1.11%.
